Results on 24 molecules are retold here after PubChem BioAssay (NCI).

Among the test systems are HS 578T breast; NCI-H226 lung; UACC-257 melanoma; HCT-15 colon; SF-268 CNS.
Assay in all cases: NCI tumour cell line growth inhibition, 48 h

Each structure is given as a SMILES string. Where “and” joins values, the source holds several entries; their conditions need not be identical. Equal values may be shown once.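 Test compounds were applied to cells in 96-well plates for 48 hours at 5 doses. GI50 marks 50% less growth. TGI is the concentration that stops growth completely.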

Regarding `COC(=O)CCNc1c2ccccc2nc2cccc([N+](=O)[O-])c12`, the TGI was 0.0128 µM and 0.0651 µM in the test with HS 578T breast; 0.0333 µM and 0.0378 µM in the test with NCI-H226 lung; 0.00704 µM and 0.0476 µM with UACC-257 melanoma. Besides, the GI50 is 0.00347 µM with NCI-H226 lung; 0.0023 µM and 0.0122 µM in the test with UACC-257 melanoma.

In the case of `C=CCOC(=O)N1c2ccc(O)cc2[C@@]23O[C@@]24[C@@H]1C#C/C=C\C#C[C@]3(O)C(OC)(OC)C[C@@H]4C`, the TGI is > 100 µM in the test with HCT-15 colon; 90.9 µM in the test with HS 578T breast; 74.3 µM with NCI-H226 lung; 44.1 µM in the test with UACC-257 melanoma; > 100 µM in the test on SF-268 CNS.

Turning to `CCOC(=O)/C=C(\C(=O)OCC)n1cc(Cl)c(=O)n(CC(=O)OCC)c1=O`, the TGI is 13.4 µM with HCT-15 colon; > 100 µM with HS 578T breast; 31.7 µM with NCI-H226 lung; 10.2 µM with UACC-257 melanoma; 32.7 µM in the test with SF-268 CNS.

As to `CCC(CC)(CO)CNc1cc(Cl)nc(N)n1`, the TGI in the test with HCT-15 colon, in the test with HS 578T breast, in the test with NCI-H226 lung, with UACC-257 melanoma and in the test with SF-268 CNS was > 100 µM each time.

Turning to `COC(=O)[C@]1(c2cc3ccccc3[nH]2)CC2CN(C(=O)OCc3ccccc3)C1CC2=O` (stereo partly drawn), the TGI in the test on HCT-15 colon was > 100 µM; in the test on HS 578T breast, 62.4 µM; with NCI-H226 lung it was 63.4 µM; in the test on UACC-257 melanoma, > 100 µM; in the test with SF-268 CNS it was > 100 µM.

On to `CN1CCc2c(sc3ncn(Nc4ccc(Cl)cc4)c(=N)c23)C1`, for which the TGI in the test with HCT-15 colon, in the test on HS 578T breast, with NCI-H226 lung, in the test on UACC-257 melanoma and in the test with SF-268 CNS was > 100 µM each time.

As to `O=c1[nH]nc(Cc2ccccc2)n1/N=C/c1cccnc1`, the TGI in the test with HCT-15 colon, in the test with HS 578T breast, in the test on NCI-H226 lung, with UACC-257 melanoma and in the test with SF-268 CNS was > 100 µM each time.

`COc1cc(C2C3=C(CCCC3=O)N(c3ccc(C)cc3)C3=C2C(=O)CCC3)c([N+](=O)[O-])cc1OC`: the TGI with HCT-15 colon, with HS 578T breast, with NCI-H226 lung and with SF-268 CNS was > 100 µM in each case.

For the molecule `O=[N+]([O-])/C=C(\CS(=O)(=O)c1ccccc1)c1ccc2c(c1)OCO2`, the TGI is > 100 µM in the test on HCT-15 colon, > 100 µM in the test with HS 578T breast, 84.5 µM with NCI-H226 lung and > 100 µM in the test on SF-268 CNS.

In the case of `Cc1c(C)c(C)c(-n2c(=O)n(C)c(=O)n2-c2cc(C(C)(C)C)cc(C(C)(C)C)c2O)c(C)c1C`, the TGI in the test on HCT-15 colon worked out at 22.5 µM; in the test on HS 578T breast, 31.9 µM; in the test with NCI-H226 lung, 22.1 µM; with UACC-257 melanoma, 23.9 µM; in the test on SF-268 CNS it was 27.7 µM.

In the case of `O=C(N/N=C\c1cccc2ccccc12)Nc1cccc2ccccc12`, the TGI in the test with HCT-15 colon, with HS 578T breast, in the test with NCI-H226 lung, in the test with UACC-257 melanoma and with SF-268 CNS was > 100 µM in each case.

Turning to `O=[N+]([O-])c1cc2ccc(N(CCO)CCO)nc2nc1N(CCO)CCO`, the TGI in the test with HCT-15 colon, in the test on HS 578T breast, in the test with NCI-H226 lung, with UACC-257 melanoma and in the test with SF-268 CNS was > 100 µM each time.

As for `Cc1ccc(S(=O)(=O)N/N=C2\CC3CC4CCC2C4C3)cc1` (stereo not drawn), the TGI in the test with HCT-15 colon, in the test with HS 578T breast, in the test with NCI-H226 lung, with UACC-257 melanoma and in the test with SF-268 CNS was > 100 µM each time.

Regarding `CCCCCCCCP(=O)(O)OP(=O)(O)OCC1OC(n2ccc(N)nc2=O)C(O)C1O` (stereo not drawn), the TGI in the test with HCT-15 colon, in the test with HS 578T breast, in the test on NCI-H226 lung, in the test with UACC-257 melanoma and in the test with SF-268 CNS was > 100 µM each time.

For `Cc1nc2c(cc1OCc1ccccc1)C(=O)C1=C(C2=O)C2OC(=O)CC2OC1(C)C` (stereo not drawn), the TGI in the test on HCT-15 colon came to 0.634 µM; in the test on HS 578T breast, 0.583 µM; with NCI-H226 lung it was 2.98 µM; in the test with UACC-257 melanoma, 1.93 µM.

Consider `O[C@@H]1CCC[C@@H]2NC[C@@H](c3ccc4c(c3)OCO4)[C@H]12`, for which the TGI in the test with HCT-15 colon, with HS 578T breast, in the test with NCI-H226 lung, with UACC-257 melanoma and with SF-268 CNS was > 100 µM each time.

Consider `O=C1CC(=O)NC(=NN2C(=O)CSC2C(=O)c2ccco2)N1` (stereo not drawn), for which the TGI in the test on HCT-15 colon, in the test on HS 578T breast, in the test with NCI-H226 lung, in the test on UACC-257 melanoma and in the test on SF-268 CNS was > 100 µM throughout.

`COC(=O)C1CCC(=O)N1C(c1cc(OC)c(OC)c(OC)c1)c1cccc2ccccc12` (stereo not drawn): the TGI with HCT-15 colon, in the test on HS 578T breast, in the test on NCI-H226 lung, in the test on UACC-257 melanoma and in the test with SF-268 CNS was > 100 µM throughout.

`NCCCNOCCCN`: the TGI in the test on HCT-15 colon and in the test on SF-268 CNS was > 100 µM in each case.

Consider `CCSc1nc(=S)n(-c2ccccc2)c(C)c1C(C)=O`, for which the TGI in the test on HCT-15 colon, with HS 578T breast, in the test with NCI-H226 lung, in the test with UACC-257 melanoma and in the test with SF-268 CNS was > 100 µM in each case.

Consider `O=C(O)c1c2c(cc3c1CC1(Cc4cc5c(cc4C1=O)CCC5)C3)CCC2` (stereo not drawn), for which the TGI in the test on HCT-15 colon, in the test on HS 578T breast, in the test on NCI-H226 lung, in the test with UACC-257 melanoma and in the test on SF-268 CNS was > 100 µM each time.

As to `CN(C)CCNC(=O)c1cccc2nc3c(C(=O)NCCN(C)C)cccc3nc12`, the TGI in the test on HCT-15 colon turned out to be 16.5 µM; with HS 578T breast, 7.73 µM; in the test with NCI-H226 lung it was 5.66 µM; in the test with UACC-257 melanoma, 4.08 µM; in the test on SF-268 CNS it was 4.84 µM.

In the case of `COC(=O)c1c2c(cc3c1CC1(Cc4cc5c(c(C(C)=O)c4C1)CCCC5)C3)CCCC2` (stereo not drawn), the TGI with HCT-15 colon, with HS 578T breast, in the test with NCI-H226 lung and in the test with UACC-257 melanoma was > 100 µM throughout.

As for `S=c1nc(N/N=C/c2cccs2)c2cn[nH]c2[nH]1`, the TGI was 64.1 µM in the test with HCT-15 colon; > 100 µM in the test with HS 578T breast; > 100 µM with NCI-H226 lung; > 100 µM in the test with UACC-257 melanoma; > 100 µM in the test with SF-268 CNS.
